Laboratory results: PubChem BioAssay (NCI)
Values joined by “and” are separate entries in the source; they are usually repeats but may differ in a detail not shown here. Identical values can stand only once.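 In this assay, cells in 96-well plates receive the compound at five concentrations for 48 hours. Endpoints are linearly interpolated between the surrounding concentrations. Here, GI50 denotes the concentration required for 50% inhibition of growth. TGI marks complete inhibition of growth.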

Legend:
Test in all cases: inhibition of tumour cell growth, NCI panel, 48 h
A549 NSCLC = tested on: A549 NSCLC
LOX IMVI melanoma = tested on: LOX IMVI melanoma
MALME-3M melanoma = tested on: MALME-3M melanoma
MDA-MB-435 = tested on: MDA-MB-435
NCI-H226 lung = tested on: NCI-H226 lung
NCI-H460 lung = tested on: NCI-H460 lung
OVCAR-4 ovarian = tested on: OVCAR-4 ovarian
SK-MEL-2 melanoma = tested on: SK-MEL-2 melanoma
SK-MEL-5 melanoma = tested on: SK-MEL-5 melanoma
SW-620 colon = tested on: SW-620 colon

| SMILES | GI50 (A549 NSCLC) [µM] | TGI (A549 NSCLC) | GI50 (LOX IMVI melanoma) | TGI (LOX IMVI melanoma) | GI50 (MALME-3M melanoma) | TGI (MALME-3M melanoma) | GI50 (MDA-MB-435) | TGI (MDA-MB-435) [µM] | GI50 (NCI-H226 lung) | TGI (NCI-H226 lung) | GI50 (NCI-H460 lung) | TGI (NCI-H460 lung) | GI50 (OVCAR-4 ovarian) | TGI (OVCAR-4 ovarian) | GI50 (SK-MEL-2 melanoma) [µM] | TGI (SK-MEL-2 melanoma) | GI50 (SK-MEL-5 melanoma) | TGI (SK-MEL-5 melanoma) | GI50 (SW-620 colon) | TGI (SW-620 colon) |
| --- | --- | --- | --- | --- | --- | --- | --- | --- | --- | --- | --- | --- | --- | --- | --- | --- | --- | --- | --- | --- |
| C[C@@H](NC(=O)c1ccc(F)cc1)c1ccc2c(c1)CCN2C(=O)C1CCOCC1 | > 100 | > 100 µM | > 100 µM | > 100 µM | > 100 µM | > 100 µM | > 100 µM | > 100 | > 100 µM | > 100 µM | > 100 µM | > 100 µM | > 100 µM | > 100 µM | > 100 | > 100 µM | > 100 µM | > 100 µM | > 100 µM | > 100 µM |
| CC(=O)N(O)c1ccc(/C=C/c2ccccc2)cc1 | 1.26 | 15.5 µM | 1.48 µM | 14.6 µM | > 66.6 µM | > 100 µM | 3.39 µM | > 100 | 0.0656 µM | 0.386 µM | 0.247 µM | 8.39 µM | 2.91 µM | > 82.1 µM | 5.71 | 37.9 µM | 6.05 µM | > 100 µM | 1.15 µM | > 100 µM |
| COC(=O)c1cc([N+](=O)[O-])cc([N+](=O)[O-])c1Cl | 20.4 | 46.8 µM | 1.75 µM | 3.36 µM | 1.95 µM | 4.1 µM | 1.89 µM | 3.64 | 3.58 µM | 13.9 µM | 13.1 µM | 39 µM | 1.76 µM | 3.17 µM | 3.52 | 12.6 µM | 3.03 µM | 10.9 µM | 1.87 µM | 3.52 µM |
| Cc1ccc(S(=O)(=O)NC(=O)OC23COCN2COC3)cc1 | – | > 100 µM | – | > 100 µM | – | > 100 µM | – | > 100 | – | > 100 µM | – | > 100 µM | – | > 100 µM | – | > 100 µM | – | > 100 µM | – | > 100 µM |
| C=CC(=O)N[C@@H](/C=C/C(=O)OCC)Cc1ccc(-c2cc(Cl)cc(Cl)c2)cc1 | 17.7 | > 100 µM | 14.2 µM | 35.6 µM | 10.9 µM | 34.1 µM | 8.58 µM | 50 | 16.7 µM | 71.7 µM | 11.2 µM | 32.8 µM | 5.23 µM | 74.4 µM | 16.3 | 38.3 µM | 4.46 µM | 17.5 µM | 17 µM | 83.2 µM |
| O=C(c1cc(Cc2n[nH]c(=O)c3ccccc23)ccc1F)N1CCN(C(=O)C2CC2)CC1 | > 100 | > 100 µM | 18.9 µM and 66.3 µM | > 100 µM | 62.4 µM and > 100 µM | > 100 µM | 58 µM and 97.6 µM | > 100 | 41.3 µM and 48.8 µM | > 100 µM | 9.25 µM and 9.96 µM | > 100 µM | 22.7 µM and 36 µM | > 100 µM | > 100 | > 100 µM | 27.6 µM and 29.1 µM | > 100 µM | 64.4 µM and > 94.1 µM | > 100 µM |
| O=c1[nH]c(=S)[nH]c(-c2ccccc2)c1Cc1c(O)ccc2ccccc12 | – | > 100 µM | – | > 100 µM | – | > 100 µM | – | 93 | – | 82.1 µM | – | > 100 µM | – | > 100 µM | – | 48.6 µM | – | 43.8 µM | – | > 100 µM |
| C[C@H]1CN(C2COC2)CCN1c1ccc(Nc2cc(-c3ccnc(N4CCn5c(cc6c5CC(C)(C)C6)C4=O)c3CO)cn(C)c2=O)nc1 | 56.8 | > 100 µM | 29.8 µM | > 100 µM | > 100 µM | > 100 µM | 26.4 µM | > 100 | 19.6 µM | 46.5 µM | 61.1 µM | > 100 µM | 22.4 µM | > 100 µM | 74.2 | > 100 µM | 31.2 µM | > 100 µM | 47.8 µM | > 100 µM |
| Fc1ccc2nc(-c3nc(-c4ccccc4)n4ccccc34)[nH]c2c1 | 2.68 | 7.98 µM | 4.86 µM | 20.2 µM | 2.06 µM | 4.33 µM | 2.59 µM | 8.94 | 1.8 µM | 5.8 µM | 2.07 µM | 5.2 µM | 1.93 µM | 6.31 µM | 2.85 | 7.83 µM | 1.55 µM | 3.49 µM | 3.97 µM | 17.3 µM |
| C/C(=N\NC(=S)N1CCN(c2ccccn2)CC1)c1ncccn1 | 0.117 | 5.91 µM and 13.2 µM | < 0.0183 µM | 9.45 µM and 2.53 µM | 0.55 µM | 5.93 µM and 18.3 µM | 0.414 µM | 11.9 | 1.71 µM | 5.78 µM and 11 µM | 0.0538 µM | 5.88 µM and 14 µM | 2.44 µM | 4.26 µM and 21.2 µM | 2.48 | 5.88 µM and 18.5 µM | 0.269 µM | 3.2 µM and 14.9 µM | 0.038 µM | 5.18 µM and 17.8 µM |
